Literature values, collected in paper PMC2749889 (Journal of neurochemistry, 2009).

Experiments:
[1] = test system: α9 homomers; conditions: read-out: IC50, α9 homomers; ref Verbitsky et al. 2000
[2] = test system: α6 ^*; conditions: ref Klink et al. 2001; Mogg et al. 2002

## CCN1C[C@]2(COC(=O)c3ccccc3N3C(=O)C[C@H](C)C3=O)CC[C@H](OC)[C@@]34[C@@H]5C[C@H]6[C@H](OC)[C@@H]5[C@](O)(C[C@@H]6OC)[C@@](O)([C@@H](OC)[C@H]23)[C@@H]14 [MLA, Methyllycaconitine]
[1]
  IC50: 1.1 nM
[2]
  block of α6 ^*: blocks
